Assay type in all cases: biochemical
Test [1] deals with GST-PLK1 (Homo sapiens, UniProt P53350). Put plainly: PLK TR-FRET peptide assay, PLK1. The conditions noted are these: read-out: Plk1 IC50.
Test [2] concerns the target T1, GST-PLK2 (Homo sapiens, UniProt Q9NYY3).
T1 construct: purchased CarnaBio
The experiment in a line: PLK TR-FRET peptide assay, PLK2. The conditions noted are these: for pIC50: read-out: Plk2 IC50; for PLK2 activity relative to the opposite enantiomer / other isomer: comparison of resolved enantiomers, used to assign absolute configuration.

The target in test [3] is T2, GST-PLK3 (Homo sapiens, UniProt Q9H4B4).
T2 construct: purchased CarnaBio
T2 sequence (Q9H4B4 whole entry): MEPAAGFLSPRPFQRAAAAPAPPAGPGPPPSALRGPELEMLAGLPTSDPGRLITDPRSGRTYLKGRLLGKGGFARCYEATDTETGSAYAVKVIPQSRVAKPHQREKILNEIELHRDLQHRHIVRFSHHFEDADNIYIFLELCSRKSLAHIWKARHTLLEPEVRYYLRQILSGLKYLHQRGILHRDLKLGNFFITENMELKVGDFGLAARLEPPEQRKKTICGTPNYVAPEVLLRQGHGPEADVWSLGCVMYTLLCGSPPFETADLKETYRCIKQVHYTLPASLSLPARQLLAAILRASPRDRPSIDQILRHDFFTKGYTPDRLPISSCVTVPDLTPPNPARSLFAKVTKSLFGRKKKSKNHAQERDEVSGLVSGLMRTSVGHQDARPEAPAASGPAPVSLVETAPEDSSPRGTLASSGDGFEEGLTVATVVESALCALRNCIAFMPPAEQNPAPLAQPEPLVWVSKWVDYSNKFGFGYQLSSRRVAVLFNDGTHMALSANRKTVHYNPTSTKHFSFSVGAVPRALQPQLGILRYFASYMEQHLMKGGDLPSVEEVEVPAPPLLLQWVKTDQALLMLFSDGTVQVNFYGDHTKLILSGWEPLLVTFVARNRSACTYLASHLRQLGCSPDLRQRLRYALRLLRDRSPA
The experiment in a line: PLK TR-FRET peptide assay, PLK3.

Setting [4] is: PLK TR-FRET peptide assay, GST-PLK2.
Setting [5] is: PLK TR-FRET peptide assay, GST-PLK3; read-out: Plk3 IC50.

pIC50: −log10 of the molar value. Where two headings read alike, the source gives them in different places. Bounds are passed on as bounds.

T1 sequence (Q9NYY3 whole entry): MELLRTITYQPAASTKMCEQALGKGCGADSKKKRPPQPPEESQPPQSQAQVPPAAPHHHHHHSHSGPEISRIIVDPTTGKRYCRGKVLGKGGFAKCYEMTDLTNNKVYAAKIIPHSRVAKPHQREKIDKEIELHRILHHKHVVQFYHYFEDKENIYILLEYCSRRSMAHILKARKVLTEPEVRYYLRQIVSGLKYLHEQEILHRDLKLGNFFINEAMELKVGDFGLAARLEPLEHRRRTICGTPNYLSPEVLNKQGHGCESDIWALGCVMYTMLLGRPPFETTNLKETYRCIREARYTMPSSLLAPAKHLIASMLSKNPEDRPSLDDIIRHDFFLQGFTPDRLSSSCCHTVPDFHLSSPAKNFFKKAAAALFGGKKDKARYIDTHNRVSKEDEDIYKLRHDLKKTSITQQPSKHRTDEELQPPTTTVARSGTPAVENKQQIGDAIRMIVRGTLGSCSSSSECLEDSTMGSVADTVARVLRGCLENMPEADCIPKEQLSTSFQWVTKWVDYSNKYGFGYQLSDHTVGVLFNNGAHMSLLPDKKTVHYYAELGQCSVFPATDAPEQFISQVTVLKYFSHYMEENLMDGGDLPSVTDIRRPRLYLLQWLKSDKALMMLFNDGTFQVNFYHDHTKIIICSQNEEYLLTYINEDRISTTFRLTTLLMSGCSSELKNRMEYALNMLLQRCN
Chain of GST-PLK1 (P53350 whole entry): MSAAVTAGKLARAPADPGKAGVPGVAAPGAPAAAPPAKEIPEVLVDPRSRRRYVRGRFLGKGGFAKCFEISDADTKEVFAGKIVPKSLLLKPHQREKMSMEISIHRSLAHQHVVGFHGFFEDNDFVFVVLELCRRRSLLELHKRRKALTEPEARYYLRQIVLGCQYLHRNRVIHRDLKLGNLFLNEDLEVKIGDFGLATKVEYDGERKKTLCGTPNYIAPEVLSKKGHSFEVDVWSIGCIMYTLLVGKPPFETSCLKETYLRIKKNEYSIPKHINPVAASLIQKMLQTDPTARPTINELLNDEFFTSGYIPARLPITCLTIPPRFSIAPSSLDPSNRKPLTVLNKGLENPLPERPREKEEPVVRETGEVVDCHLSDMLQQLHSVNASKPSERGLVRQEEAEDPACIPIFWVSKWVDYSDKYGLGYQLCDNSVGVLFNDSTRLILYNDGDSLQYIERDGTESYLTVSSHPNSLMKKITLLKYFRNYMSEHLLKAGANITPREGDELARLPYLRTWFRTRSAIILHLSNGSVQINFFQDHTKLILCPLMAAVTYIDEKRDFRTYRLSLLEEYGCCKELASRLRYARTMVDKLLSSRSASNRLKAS

`CC[C@@]12COCCN1c1nc(-c3snnc3-c3ccccc3)ncc1N(C)C2=O` [Example 368, (S)-6a-ethyl-5-methyl-2-(4-phenyl-1,2,3-thiadiazol-5-yl)-6a,7,9,10-tetrahydro-[1,4]oxazino[3,4-h]pteridin-6(5H)-one]: the negative-log IC50 (pIC50) is under 4.30 in test [1], over 6.00 in test [2] (setting [4]) and 5.00 to 6.00 in test [3] (setting [5]). Further, the “PLK2 activity relative to the opposite enantiomer / other isomer” value in test [2] is listed as “more active compound”.

With `CC[C@@H]1C(=O)N(C)c2cnc(-n3ccnc3-c3cccnn3)nc2N1C(C)C` [Example 152, (R)-7-ethyl-8-isopropyl-5-methyl-2-(2-(pyridazin-3-yl)-1H-imidazol-1-yl)-7,8-dihydropteridin-6(5H)-one], the values for the negative logarithm of the IC50 (pIC50) in test [1], in test [2] (setting [4]) and in test [3] (setting [5]) were 4.30 to 5.00, over 6.00 and under 4.30, respectively.

As to `CC[C@@H]1C(=O)N(C)c2cnc(-n3cc(C(=O)O)cn3)nc2N1C1CCCC1` [Example 44, (R)-1-(8-cyclopentyl-7-ethyl-5-methyl-6-oxo-5,6,7,8-tetrahydropteridin-2-yl)-1H-pyrazole-4-carboxylic acid], the pIC50 in test [1] is over 6.00; in test [2] (setting [4]), 5.00 to 6.00; in test [3] (setting [5]) it was 5.00 to 6.00.

Turning to `CCOC(=O)c1cnn(-c2ncc3c(n2)N(C2CCCC2)[C@H](CC)C(=O)N3C)c1` [Example 18, (R)-ethyl 1-(8-cyclopentyl-7-ethyl-5-methyl-6-oxo-5,6,7,8-tetrahydropteridin-2-yl)-1H-pyrazole-4-carboxylate], the negative logarithm of the IC50 (pIC50) in test [1] is over 6.00; in test [2] (setting [4]), 5.00 to 6.00; in test [3] (setting [5]), 4.30 to 5.00.

Consider `CC[C@@H]1C(=O)N(C)c2cnc(-n3ccnc3-c3ccccn3)nc2N1C(C)C` [Example 153, (R)-7-ethyl-8-isopropyl-5-methyl-2-(2-(pyridin-2-yl)-1H-imidazol-1-yl)-7,8-dihydropteridin-6(5H)-one], for which the pIC50 was 5.00 to 6.00 in test [1], over 6.00 in test [2] (setting [4]) and 5.00 to 6.00 in test [3] (setting [5]).

For `CC[C@@H]1C(=O)N(C)c2cnc(-n3ccnc3-c3ncccn3)nc2N1C(C)C` [Example 148, (R)-7-ethyl-8-isopropyl-5-methyl-2-(2-(pyrimidin-2-yl)-1H-imidazol-1-yl)-7,8-dihydropteridin-6(5H)-one], the pIC50 in test [1] is 5.00 to 6.00; in test [2] (setting [4]), over 6.00; in test [3] (setting [5]), 4.30 to 5.00.

Consider `CCC1C(=O)N(C)c2cnc(-c3c[nH]nc3-c3ccc(F)cc3F)nc2N1c1ccn(C)n1` (stereo not drawn) [Example 420, 2-(3-(2,4-difluorophenyl)-1H-pyrazol-4-yl)-7-ethyl-5-methyl-8-(1-methyl-1H-pyrazol-3-yl)-7,8-dihydropteridin-6(5H)-one], for which the pIC50 in test [1], in test [2] (setting [4]) and in test [3] (setting [5]) was over 6.00 throughout.

On to `CCC1C(=O)N(C)c2cnc(-n3ccnc3)nc2N1c1cn[nH]c1` (stereo not drawn) [Example 343, 7-ethyl-2-(1H-imidazol-1-yl)-5-methyl-8-(1H-pyrazol-4-yl)-7,8-dihydropteridin-6(5H)-one], for which the negative-log IC50 (pIC50) in test [1] was under 4.30; in test [2] (setting [4]) it was 5.00 to 6.00; in test [3] (setting [5]), under 4.30.

Regarding `CC[C@]12COCCN1c1nc(-c3snnc3-c3ccccc3)ncc1N(C)C2=O` [Example 369, (R)-6a-ethyl-5-methyl-2-(4-phenyl-1,2,3-thiadiazol-5-yl)-6a,7,9,10-tetrahydro-[1,4]oxazino[3,4-h]pteridin-6(5H)-one], the pIC50 in test [1], in test [2] (setting [4]) and in test [3] (setting [5]) was under 4.30 in each case.

In the case of `CC[C@@H]1C(=O)N(C)c2cnc(-n3ncnc3-c3ccn[nH]3)nc2N1C(C)C` [Example 327, (R)-2-(5-(1H-pyrazol-5-yl)-1H-1,2,4-triazol-1-yl)-7-ethyl-8-isopropyl-5-methyl-7,8-dihydropteridin-6(5H)-one], the pIC50 in test [1] was over 6.00; in test [2] (setting [4]), over 6.00; in test [3] (setting [5]), 5.00 to 6.00.

Regarding `CC[C@]12CN(C)CCN1c1nc(-n3ccnc3-c3ccccc3)ncc1N(C)C2=O` [Example 375, (R)-6a-ethyl-5,8-dimethyl-2-(2-phenyl-1H-imidazol-1-yl)-7,8,9,10-tetrahydro-5H-pyrazino[2,1-h]pteridin-6(6aH)-one], the negative logarithm of the IC50 (pIC50) in test [1] was under 4.30; in test [2] (setting [4]) it was 4.30 to 5.00; in test [3] (setting [5]) it was under 4.30.

Take `CC[C@]12COCCN1c1nc(-c3cn[nH]c3-c3ccc(F)cc3F)ncc1N(C)C2=O` [Example 412, (R)-2-(5-(2,4-difluorophenyl)-1H-pyrazol-4-yl)-6a-ethyl-5-methyl-6a,7,9,10-tetrahydro-[1,4]oxazino[3,4-h]pteridin-6(5H)-one]: the negative-log IC50 (pIC50) in test [1] is under 4.30; in test [2] (setting [4]) it was 5.00 to 6.00; in test [3] (setting [5]), under 4.30.

Turning to `CC[C@@H]1C(=O)N(C)c2cnc(-n3ccnc3-c3cncnc3)nc2N1C1CCC1` [Example 176, (R)-8-cyclobutyl-7-ethyl-5-methyl-2-(2-(pyrimidin-5-yl)-1H-imidazol-1-yl)-7,8-dihydropteridin-6(5H)-one], the pIC50 in test [1] was 5.00 to 6.00; in test [2] (setting [4]) it was over 6.00; in test [3] (setting [5]), under 4.30.

As to `CN1C(=O)C23C=CC(CC2)N3c2nc(-n3ccnc3-c3ccccc3)ncc21` (stereo not drawn) [Example 326, 5-methyl-2-(2-phenyl-1H-imidazol-1-yl)-9H-6a,9-ethanopyrrolo[2,1-h]pteridin-6(5H)-one], the pIC50 in test [1] was under 4.30; in test [2] (setting [4]) it was 5.00 to 6.00; in test [3] (setting [5]) it was under 4.30.

Turning to `CC[C@@]12CN(C)CCN1c1nc(-n3ccnc3-c3ccccc3)ncc1N(C)C2=O` [Example 374, (S)-6a-ethyl-5,8-dimethyl-2-(2-phenyl-1H-imidazol-1-yl)-'7,8,9,10-tetrahydro-5H-pyrazino[2,1-h]pteridin-6(6aH)-one], the results for the pIC50 in test [1], in test [2] (setting [4]) and in test [3] (setting [5]) were under 4.30, over 6.00 and 4.30 to 5.00, respectively. The “PLK2 activity relative to the opposite enantiomer / other isomer” value in test [2] is given as “more active compound”.

Consider `CC[C@@H]1C(=O)N(C)c2cnc(-c3nccnc3-c3ccccc3)nc2N1C1CCCC1` [Example 138, (R)-8-cyclopentyl-7-ethyl-5-methyl-2-(3-phenylpyrazin-2-yl)-7,8-dihydropteridin-6(5H)-one], for which the pIC50 in test [1] was over 6.00; in test [2], over 6.00; in test [3] (read-out: Plk3 IC50; PLK TR-FRET peptide assay, GST-PLK3) it was over 6.00.

Consider `CC[C@@H]1C(=O)N(C)c2cnc(-c3ccncc3)nc2N1C1CCCC1` [Example 5, (R)-8-cyclopentyl-7-ethyl-5-methyl-2-(pyridin-4-yl)-7,8-dihydropteridin-6(5H)-one], for which the figures for the pIC50 in test [1], in test [2] (setting [4]) and in test [3] (setting [5]) were over 6.00, over 6.00 and 4.30 to 5.00, respectively.

As to `CC[C@@H]1C(=O)N(C)c2cnc(-n3cc(C(=O)N4CCOCC4)cn3)nc2N1C1CCCC1` [Example 41, (R)-8-cyclopentyl-7-ethyl-5-methyl-2-(4-(morpholine-4-carbonyl)-1H-pyrazol-1-yl)-7,8-dihydropteridin-6(5H)-one], the negative logarithm of the IC50 (pIC50) is 5.00 to 6.00 in test [1], 5.00 to 6.00 in test [2] (setting [4]) and 4.30 to 5.00 in test [3] (setting [5]).

For `CC[C@]12COCCN1c1nc(-c3snnc3-c3ccc(F)cc3F)ncc1N(C)C2=O` [Example 398, (R)-2-(4-(2,4-difluorophenyl)-1,2,3-thiadiazol-5-yl)-6a-ethyl-5-methyl-6a,7,9,10-tetrahydro-[1,4]oxazino[3,4-h]pteridin-6(5H)-one], the pIC50 in test [1], in test [2] (setting [4]) and in test [3] (setting [5]) was under 4.30 in each case.

For the compound `CC[C@@H]1C(=O)N(C)c2cnc(-n3cnc(-c4cccnc4)c3)nc2N1C1CCCC1` [Example 59, (R)-8-cyclopentyl-7-ethyl-5-methyl-2-(4-(pyridin-3-yl)-1H-imidazol-1-yl)-7,8-dihydropteridin-6(5H)-one], the figures for the pIC50 in test [1], in test [2] (setting [4]) and in test [3] (setting [5]) were over 6.00, over 6.00 and 5.00 to 6.00, respectively.

With `CC[C@@H]1C(=O)N(C)c2cnc(-n3cnc(Br)c3)nc2N1C1CCCC1` [Example 43, (R)-2-(4-bromo-1H-imidazol-1-yl)-8-cyclopentyl-7-ethyl-5-methyl-7,8-dihydropteridin-6(5H)-one], the negative logarithm of the IC50 (pIC50) is over 6.00 in test [1], over 6.00 in test [2] (setting [4]) and 4.30 to 5.00 in test [3] (setting [5]).

`CC[C@@H]1C(=O)N(C)c2cnc(-n3ccnc3)nc2N1C1CCC1` [Example 111, (R)-8-cyclobutyl-7-ethyl-2-(1H-imidazol-1-yl)-5-methyl-7,8-dihydropteridin-6(5H)-one]: the pIC50 in test [1] was 5.00 to 6.00; in test [2] (setting [4]), over 6.00; in test [3] (setting [5]), 4.30 to 5.00.

Regarding `CC[C@@]12COCCN1c1nc(-c3cnoc3-c3ccccc3)ncc1N(C)C2=O` [Example 413, (S)-6a-ethyl-5-methyl-2-(5-phenylisoxazol-4-yl)-6a,7,9,10-tetrahydro-[1,4]oxazino[3,4-h]pteridin-6(5H)-one], the figures for the pIC50 in test [1], in test [2] (setting [4]) and in test [3] (setting [5]) were 4.30 to 5.00, over 6.00 and 4.30 to 5.00, respectively.

As for `CC[C@@]12COCCN1c1nc(-c3cn[nH]c3-c3nccs3)ncc1N(C)C2=O` [Example 344, (S)-6a-ethyl-5-methyl-2-(5-(thiazol-2-yl)-1H-pyrazol-4-yl)-6a,7,9,10-tetrahydro-[1,4]oxazino[3,4-h]pteridin-6(5H)-one], the values for the pIC50 in test [1], in test [2] (setting [4]) and in test [3] (setting [5]) were under 4.30, over 6.00 and 4.30 to 5.00, respectively. The “PLK2 activity relative to the opposite enantiomer / other isomer” value in test [2] is “more active compound”.

On to `CC[C@@H]1C(=O)N(C)c2cnc(-n3ccnc3-c3ccc(S(C)(=O)=O)cc3)nc2N1C1CCCC1` [Example 79, (R)-8-cyclopentyl-7-ethyl-5-methyl-2-(2-(4-(methylsulfonyl)phenyl)-1H-imidazol-1-yl)-7,8-dihydropteridin-6(5H)-one], for which the pIC50 in test [1] was 5.00 to 6.00; in test [2] (setting [4]), over 6.00; in test [3] (setting [5]), 4.30 to 5.00.

These data come from patent US8445503B2, “Inhibitors of polo-like kinase” (Elan Pharmaceuticals, Inc., priority 2009, dated 2013).
